Where a name gives a salt, the structure may show the parent alone.
How the values were obtained:
[1] = tested on: NCI-H292 lung cancer cells; test: FDA drug screening, complete media vs cholesterol-free media without statin (TABLE 1); format: cell-based, human
[2] = tested on: NCI-H292 lung cancer cells; test: FDA drug screening, complete media vs cholesterol-free media with simvastatin (TABLE 2); format: cell-based, human; details: for Cholesterol-free media + simvastatin (0.04 μM) / Complete Media: NCI-H292 cells
[3] = Complete minus Cholesterol-free, >0 enhanced anti-cancer activity, about 0 neutral, <0 antagonist
[4] = NCI-H292 cells, cholesterol-free media without statin
[5] = FDA drug library screen, cholesterol-free media with simvastatin 0.04 μM
[6] = FDA drug library screen, complete media
[7] = complete media vs cholesterol-free media + simvastatin (0.04 μM), >0 enhanced anti-cancer activity, about 0 neutral, <0 antagonist
[8] = complete vs cholesterol-free media, greater than 0 enhanced anti-cancer activity, about 0 neutral, below 0 antagonists
[9] = cholesterol-free media with simvastatin 0.04 μM, FDA drug library screen (TABLE 2)
[10] = complete media, FDA drug library screen (TABLE 2)
[11] = complete media minus cholesterol-free media + simvastatin (0.04 μM), >0 enhanced anti-cancer activity, about 0 neutral, <0 antagonist
[12] = NCI-H292 cells, cholesterol-free media without statin, FDA drug library screen
[13] = NCI-H292 cells, complete media, FDA drug library screen
[14] = complete media minus cholesterol-free media + simvastatin, >0 enhanced anti-cancer activity, about 0 neutral, <0 antagonist
[15] = drug in cholesterol-free media with simvastatin 0.04 μM
[16] = Complete minus Cholesterol-free, greater than 0 enhanced anti-cancer activity, about 0 neutral, below 0 antagonist
[17] = NCI-H292 cells, FDA drug library screen, cholesterol-free media without statin
[18] = NCI-H292 cells, FDA drug library screen, complete media
[19] = Complete minus Cholesterol-free, […]

CC(C)(C)N.CCC[C@H](N[C@@H](C)C(=O)N1[C@H](C(=O)O)C[C@@H]2CCCC[C@@H]21)C(=O)OCC [Perindopril (erbumine)]
Difference [1, 3]: −0.25
Cholesterol-free [1, 4]: 1.151
Complete ([1]; NCI-H292 cells, complete media): 0.8989
Cholesterol-free media + simvastatin (0.04 μM) [2, 5]: 0.9237
Complete Media [2, 6]: 0.7917
Difference [2, 7]: −0.13

CC1(C)C(C=C(Cl)Cl)C1C(=O)OCc1cccc(Oc2ccccc2)c1 (centres unmarked) [Permethrin]
Cholesterol-free [1, 4]: 1.352
Complete ([1]; NCI-H292 cells, complete media): 0.9496
Difference ([1]; complete vs cholesterol-free media, […]): −0.40
Cholesterol-free media + simvastatin (0.04 μM) ([2]; FDA library drug in cholesterol-free media with simvastatin 0.04 μM): 1.233
Complete Media ([2]; FDA library drug in complete media): 0.8994
Difference ([2]; complete media vs cholesterol-free media + simvastatin (0.04 μM), […]): −0.33

O=C1[C@H]2CCCC[C@H]2C(=O)N1CCCCN1CCN(c2nsc3ccccc23)CC1 [Perospirone]
Cholesterol-free [1, 4]: 1.046
Complete ([1]; NCI-H292 cells, complete media): 0.7154
Difference [1, 8]: −0.33
Cholesterol-free media + simvastatin (0.04 μM) [2, 9]: 0.9946
Complete Media [2, 10]: 0.9329
Difference [2, 11]: −0.06

OCCN1CCN(CCCN2c3ccccc3Sc3ccc(Cl)cc32)CC1 [Perphenazine]
Difference [1, 3]: 0.00
Cholesterol-free [1, 12]: 0.9098
Complete [1, 13]: 0.9103
Cholesterol-free media + simvastatin (0.04 μM) [2, 5]: 0.707
Complete Media [2, 6]: 0.9554
Difference [2, 14]: 0.25

FC(F)(F)c1ccc(CNc2ccc(Cc3c[nH]c4ncc(Cl)cc34)cn2)cn1 [Pexidartinib (hydrochloride)]
Cholesterol-free [1, 4]: 1.204
Complete ([1]; NCI-H292 cells, complete media): 0.7514
Difference [1, 8]: −0.45
Cholesterol-free media + simvastatin (0.04 μM) [2, 5]: 1.136
Complete Media [2, 6]: 1.002
Difference [2, 7]: −0.13

FC(F)(F)c1ccc(CNc2ccc(Cc3c[nH]c4ncc(Cl)cc34)cn2)cn1 [Pexidartinib]
Difference ([1]; Complete minus Cholesterol-free, greater than 0 enhanced anti-cancer activity, about 0 neutral, below 0 antagonists): −0.77
Cholesterol-free ([1]; NCI-H292 cells in cholesterol-free media without statin): 1.609
Complete ([1]; NCI-H292 cells in complete media): 0.8353
Cholesterol-free media + simvastatin (0.04 μM) [2, 15]: 1.767
Complete Media ([2]; drug in complete media): 1.579
Difference [2, 7]: −0.19

CCOc1ccc(NC(C)=O)cc1 [Phenacetin]
Difference [1, 16]: −0.09
Cholesterol-free [1, 17]: 0.9552
Complete [1, 18]: 0.8688
Cholesterol-free media + simvastatin (0.04 μM) [2, 5]: 1.132
Complete Media [2, 6]: 1.048
Difference [2, 7]: −0.08

COS(=O)(=O)[O-].C[n+]1c2ccccc2nc2ccccc21 [Phenazine (methylsulfate)]
Difference [1, 3]: −0.01
Cholesterol-free [1, 12]: 0.03605
Complete [1, 13]: 0.02161
Cholesterol-free media + simvastatin (0.04 μM) [2, 9]: 0.07249
Complete Media [2, 10]: 0.06209
Difference [2, 11]: −0.01

Nc1ccc(/N=N/c2ccccc2)c(N)n1 [Phenazopyridine (hydrochloride)]
Difference [1, 3]: −0.06
Cholesterol-free [1, 12]: 1.194
Complete [1, 13]: 1.131
Cholesterol-free media + simvastatin (0.04 μM) [2, 5]: 1.284
Complete Media [2, 6]: 1.801
Difference [2, 14]: 0.52

[H]/N=C(/N)N/C(=N/[H])NCCc1ccccc1 [Phenformin (hydrochloride)]
Difference [1, 16]: −0.12
Cholesterol-free [1, 17]: 0.9657
Complete [1, 18]: 0.8472
Cholesterol-free media + simvastatin (0.04 μM) [2, 5]: 1.171
Complete Media [2, 6]: 1.373
Difference [2, 14]: 0.20

O=C1c2ccccc2C(=O)C1c1ccccc1 [Phenindione]
Cholesterol-free [1, 12]: 0.7484
Difference ([1]; complete vs cholesterol-free media, >0 enhanced anti-cancer activity, about 0 neutral, <0 antagonist): 0.40
Cholesterol-free media + simvastatin (0.04 μM) [2, 15]: 1.567
Complete Media ([2]; drug in complete media): 1.395
Difference [2, 7]: −0.17

O=C1OC(c2ccc(O)cc2)(c2ccc(O)cc2)c2ccccc21 [Phenolphthalein]
Difference [1, 3]: −0.30
Cholesterol-free [1, 4]: 1.17
Complete ([1]; NCI-H292 cells, complete media): 0.8721
Cholesterol-free media + simvastatin (0.04 μM) [2, 15]: 1.026
Complete Media ([2]; drug in complete media): 0.7863
Difference [2, 7]: −0.24

c1ccc2c(c1)Nc1ccccc1S2 [Phenothiazine]
Difference [1, 19]: −0.11
Cholesterol-free [1, 17]: 1.108
Complete [1, 18]: 1.002
Cholesterol-free media + simvastatin (0.04 μM) ([2]; cholesterol-free media with simvastatin 0.04 μM, […]): 1.18
Complete Media ([2]; complete media, […]): 1.261
Difference ([2]; complete media minus cholesterol-free media + simvastatin, […]): 0.08

CC(COc1ccccc1)N(CCCl)Cc1ccccc1 (centres unmarked) [Phenoxybenzamine (hydrochloride)]
Difference [1, 19]: −0.20
Cholesterol-free [1, 4]: 0.9421
Complete ([1]; NCI-H292 cells, complete media): 0.7375
Cholesterol-free media + simvastatin (0.04 μM) [2, 9]: 0.9012
Complete Media [2, 10]: 0.8799
Difference ([2]; complete media minus cholesterol-free media + simvastatin (0.04 μM), […]): −0.02
